26 compounds from patent US11530213B2, “Naphthyridinone derivatives and their use in the treatment of arrhythmia” (NOVARTIS AG, priority 2016, dated 2022) can be followed below.

Molecules are shown by their SMILES.

Sequence of GIRK1/4 (P48549 whole entry): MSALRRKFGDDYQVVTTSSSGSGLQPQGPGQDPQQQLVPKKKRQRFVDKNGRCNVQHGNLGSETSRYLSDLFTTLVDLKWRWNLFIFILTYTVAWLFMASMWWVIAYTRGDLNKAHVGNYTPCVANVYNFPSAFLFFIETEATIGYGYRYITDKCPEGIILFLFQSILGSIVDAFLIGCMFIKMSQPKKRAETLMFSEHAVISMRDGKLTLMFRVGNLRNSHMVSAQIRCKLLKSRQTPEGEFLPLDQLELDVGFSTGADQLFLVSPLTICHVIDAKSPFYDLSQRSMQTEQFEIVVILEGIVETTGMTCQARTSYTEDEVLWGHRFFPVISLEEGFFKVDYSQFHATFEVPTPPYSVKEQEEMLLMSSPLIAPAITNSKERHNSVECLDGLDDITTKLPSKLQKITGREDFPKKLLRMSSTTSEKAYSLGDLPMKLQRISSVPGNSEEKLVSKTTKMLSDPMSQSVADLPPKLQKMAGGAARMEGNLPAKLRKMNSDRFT
Sequence of GIRK1/4 (P48544 whole entry): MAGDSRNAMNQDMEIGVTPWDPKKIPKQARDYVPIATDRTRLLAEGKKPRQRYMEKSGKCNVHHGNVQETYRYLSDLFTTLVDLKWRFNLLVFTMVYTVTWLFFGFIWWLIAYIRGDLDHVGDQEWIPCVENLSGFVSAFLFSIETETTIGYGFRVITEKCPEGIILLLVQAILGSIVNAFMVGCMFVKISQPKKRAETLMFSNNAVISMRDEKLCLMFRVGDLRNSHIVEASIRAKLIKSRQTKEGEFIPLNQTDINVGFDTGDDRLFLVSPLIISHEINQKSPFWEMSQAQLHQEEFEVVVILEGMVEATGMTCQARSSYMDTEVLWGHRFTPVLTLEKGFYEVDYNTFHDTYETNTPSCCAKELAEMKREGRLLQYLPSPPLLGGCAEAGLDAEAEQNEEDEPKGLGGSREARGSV

The experiment addresses GIRK1/4 (Homo sapiens (Human), UniProt P48544+P48549). The experiment in a line: GIRK1/4 inhibition, Quattro (IonWorks) population patch clamp, inward potassium current in GIRK 1/4 HEK293 stable cells (test assay No. 1). Conditions: percentage of current inhibition normalized to DMSO-only control. Format: cell-based. As to the method:
The activity of a compound according to the present invention can be assessed by the following in vitro method. • 1. Buffers: • a. External buffer: 10 mM NaCl, 50 mM Na Gluconate, 80 mM K Gluconate, 1.8 mM CaCl2, 1 mM MgCl2, 10 mM HEPES, 10 mM Glucose, pH 7.4; osmolality […]. • b. Internal buffer: 30 mM KCl, 100 mM K Gluconate, 1 mM MgCl2, 10 mM HEPES, 1 mM EGTA, 10 mM NaCl, pH 7.2; osmolality […]. • 2. Compounds: • a. Prepare seven-fold compound dilution series (10 mM to 20 uM) in 100% DMSO, in 384-well polypropylene plates. • b. Propafenone (Sigma Aldrich, catalog number P4670) is used as a positive control and DMSO for neutral control • c. Resuspend 1 ul of compounds in DMSO into 65.7 ul external buffer in 384-well polypropylene plate and load into Plate 1 section of Molecular Devices Quattro • 3. Quattro setup: • a. Load 384-well Population Patch Plate (Molecular Devices #9000-0902) into Quattro • b. Fill Quattro F-soak trough with 20% DMSO and 50% EtOH • c. Fill Quattro buffer trough with external buffer • d. Attach internal buffer flask to Quattro internal buffer tubing • e. Attach PBS (Phosphate Buffered Saline, minus Ca^++ and Mg^++, pH7.4) bottle to F-head & E-head wash on Quattro • 4. Antibiotic: • a. Resuspend 5.6 mg amphotericin B (Sigma Aldrich, catalog number A2411) in 175 ul DMSO • b. Add the resulting solution to 50 ml internal buffer, mix and attach to antibiotic tubing port on Quattro • 5. Cells: • a. Use GIRK 1/4 HEK293 stable cells (obtained from ChanTest, 14656 Neo Parkway, Cleveland, Ohio 44128) grown to […] confluency in the following cell culture medium: DMEM containing 10% (v/v) Fetal Bovine Serum, Penicillin/Streptomycin (at “1×” concentration from a 100× stock), 0.5 mg/ml G418 and 0.1 mg/ml Zeocin. • b. Wash cells with PBS (minus Ca^++ and Mg^++), Detach cells using Detachin (Genlantis, 11011 Torreyana, San Diego, Calif. 92121), and resuspend in external buffer (5 ml final volume at 2.0-2.1×10^6 cells/ml) • c. Load into cell trough of Quattro • 6. Assay Protocol: • Quattro is controlled using IonWorks v2 software to perform the following steps: • a. Add 3.5 ul cells plus 3.5 ul external buffer to wells of Quattro Patch Plate • b. Circulate amphotericin B and internal buffer onto cells • c. Apply the following voltage protocol: Pulse 1: 15 mV for 300 milliseconds (ms), followed by Pulse 2: −120 mV for 400 ms, then Pulse 3: −15 mV for 400 ms, and finally Pulse 4: −120 mV to 40 mV over 500 ms (this is a voltage ramp). • d. Measure magnitude of inward potassium current at time point between 1200-1220 ms from start of Pulse 1 (i.e. during the voltage ramp phase). • e. Add 3.5 ul of diluted compounds (or DMSO) to wells and repeat steps c-d (final compound concentrations are 50 uM to 0.1 uM, for potent compounds 0.5 uM to 0.01 uM and each concentration is tested in quadruplicate—i.e. in 4 separate wells). • f. The difference between current magnitude pre vs. post-compound gives a measure of GIRK1/4 inhibition. • 7. Data analysis:
IC50 values are calculated by plotting the percentage of current inhibition (normalized to the DMSO-only control) as a function of compound concentration using standard data analysis software.
(In general: The patch-clamp technique gives a direct electrical read-out from membranes.)
For the compound `Cc1cc(=O)c2c(OCC(O)CO)ncc(Cl)c2n1-c1c(Cl)cccc1C#N` (centres unmarked) [Example 34, 3-chloro-2-(8-chloro-5-(2,3-dihydroxypropoxy)-2-methyl-4-oxo-1,6-naphthyridin-1(4H)-yl)benzonitrile], the IC50 (commonly the midpoint of a concentration-inhibition curve) turned out to be 240 nM. In other words, the sub-micromolar range.

As for `Cc1cc(=O)c2c(NCCc3c[nH]cn3)ncc(Cl)c2n1-c1c(Cl)cccc1Cl` [Example 35, 5-((2-(1H-imidazol-4-yl)ethyl)amino)-8-chloro-1-(2,6-dichlorophenyl)-2-methyl-1,6-naphthyridin-4(1H)-one], the IC50 came to 35 nM. This IC50 lies about 6.9-fold lower than the previous one.

As to `Cc1cc(=O)c2c(OCCNS(C)(=O)=O)ncc(Cl)c2n1-c1c(Cl)cccc1Cl` [Example 36, N-(2-((8-chloro-1-(2,6-dichlorophenyl)-2-methyl-4-oxo-1,4-dihydro-1,6-naphthyridin-5-yl)oxy)ethyl)methanesulfonamide], the IC50 was found to be 9 nM.

The compound `Cc1cc(=O)c2c(NCCOCCOCCOCCO)ncc(Cl)c2n1-c1c(Cl)cccc1Cl` [Example 37, 8-chloro-1-(2,6-dichlorophenyl)-5-((2-(2-(2-(2-hydroxyethoxy)ethoxy)ethoxy)ethyl)amino)-2-methyl-1,6-naphthyridin-4(1H)-one] showed an IC50 of 6 nM.

On to `Cc1cc(=O)c2c(OCC(O)CO)ncc(Cl)c2n1-c1c(Cl)cccc1Cl` (centres unmarked) [Example 38, 8-chloro-1-(2,6-dichlorophenyl)-5-(2,3-dihydroxypropoxy)-2-methyl-1,6-naphthyridin-4(1H)-one], for which the IC50 came to 8 nM.

Regarding `Cc1cc(=O)c2c(NC[C@H](O)CO)ncc(Cl)c2n1-c1c(Cl)cccc1Cl` [Example 39, (S)-8-chloro-1-(2,6-dichlorophenyl)-5-((2,3-dihydroxypropyl)amino)-2-methyl-1,6-naphthyridin-4(1H)-one], half-maximal inhibition (IC50) required 15 nM.

Compound `Cc1cc(=O)c2c(OCC(O)C(C)(C)O)ncc(Cl)c2n1-c1c(Cl)cccc1Cl` (centres unmarked) [Example 40, 8-chloro-1-(2,6-chlorophenyl)-5-(2,3-dihydroxy-3-methylbutoxy)-2-methyl-1,6-naphthyridin-4(1H)-one] gave an IC50 of 13 nM.

Compound `Cc1cc(=O)c2c(OCC(C)(CO)CO)ncc(Cl)c2n1-c1c(Cl)cccc1Cl` [Example 41, 8-chloro-1-(2,6-dichlorophenyl)-5-(3-hydroxy-2-(hydroxymethyl)-2-methylpropoxy)-2-methyl-1,6-naphthyridin-4(1H)-one] gave an IC50 of 28 nM.

For `Cc1cc(=O)c2c(OCC(C)(C)O)ncc(Cl)c2n1-c1c(Cl)cccc1Cl` [Example 42, 8-chloro-1-(2,6-dichlorophenyl)-5-(2-hydroxy-2-methylpropoxy)-2-methyl-1,6-naphthyridin-4(1H)-one], the IC50 was 15 nM.

Consider `Cc1cc(=O)c2c(N[C@@H]3COC[C@H]3O)ncc(Cl)c2n1-c1c(Cl)cc(C#N)cc1Cl` [Example 43, 3,5-dichloro-4-(8-chloro-5-(((3R,4S)-4-hydroxytetrahydrofuran-3-yl)amino)-2-methyl-4-oxo-1,6-naphthyridin-1(4H)-yl)benzonitrile], for which the IC50 stood at 26 nM. Compared with the last compound, the IC50 is about 1.7-fold higher.

`Cc1cc(=O)c2c(NOCCO)ncc(Cl)c2n1-c1c(Cl)cc(C#N)cc1Cl` [Example 44, 3,5-dichloro-4-(8-chloro-5-((2-hydroxyethoxy)amino)-2-methyl-4-oxo-1,6-naphthyridin-1(4H)-yl)benzonitrile] had an IC50 of 56 nM.

`Cc1cc(=O)c2c(Nc3nnnn3C)ncc(Cl)c2n1-c1c(Cl)cccc1Cl` [Example 45, 8-chloro-1-(2,6-dichlorophenyl)-2-methyl-5-((1-methyl-1H-tetrazol-5-yl)amino)-1,6-naphthyridin-4(1H)-one] returned an IC50 of 149 nM.

On to `Cc1cc(=O)c2c(Oc3nnnn3C)ncc(Cl)c2n1-c1c(Cl)cccc1Cl` [Example 46, 8-chloro-1-(2,6-dichlorophenyl)-2-methyl-5-((1-methyl-1H-tetrazol-5-yl)oxy)-1,6-naphthyridin-4(1H)-one], for which it took 128 nM to reach half-maximal inhibition (IC50).

With `Cc1cc(=O)c2c(Nc3nnn(C)n3)ncc(Cl)c2n1-c1c(Cl)cccc1Cl` [Example 47, 8-chloro-1-(2,6-dichlorophenyl)-2-methyl-5-((2-methyl-2H-tetrazol-5-yl)amino)-1,6-naphthyridin-4(1H)-one], the IC50 is 59 nM. Compared with the last compound, the IC50 is about 2.2-fold lower.

As to `Cc1cc(=O)c2c(OCCO)ncc(Cl)c2n1-c1c(Cl)cccc1Cl` [Example 48, 8-chloro-1-(2,6-dichlorophenyl)-5-(2-hydroxyethoxy)-2-methyl-1,6-naphthyridin-4(1H)-one], the IC50 turned out to be 9 nM. Against the preceding compound, the IC50 is about 6.6-fold lower.

The compound `Cc1cc(=O)c2c(NOCCO)ncc(Cl)c2n1-c1c(Cl)cccc1Cl` [Example 49, 8-chloro-1-(2,6-dichlorophenyl)-5-((2-hydroxyethoxy)amino)-2-methyl-1,6-naphthyridin-4(1H)-one] registered an IC50 of 42 nM.

On to `Cc1cc(=O)c2c(OCC3COC3)ncc(Cl)c2n1-c1c(Cl)cccc1Cl` [Example 50, 8-chloro-1-(2,6-dichlorophenyl)-2-methyl-5-(oxetan-3-ylmethoxy)-1,6-naphthyridin-4(1H)-one], for which the IC50 is 11 nM.

Consider `CS(=O)(=O)CCNc1ncc(Cl)c2c1c(=O)cc(CO)n2-c1c(Cl)cccc1Cl` [Example 51, 8-chloro-1-(2,6-dichlorophenyl)-2-(hydroxymethyl)-5-((2-(methylsulfonyl)ethyl)amino)-1,6-naphthyridin-4(1H)-one], for which the half-inhibitory concentration (IC50) came to 41 nM.

Take `Cc1cc(=O)c2c(OCC(O)CO)ncc(C3CC3)c2n1-c1c(Cl)cccc1Cl` (centres unmarked) [Example 52, 8-cyclopropyl-1-(2,6-dichlorophenyl)-5-(2,3-dihydroxypropoxy)-2-methyl-1,6-naphthyridin-4(1H)-one]: half-maximal inhibition (IC50) required 73 nM.

Regarding `COCc1cc(=O)c2c(OCC(CO)CO)ncc(Cl)c2n1-c1c(Cl)cccc1Cl` [Example 53, 8-chloro-1-(2,6-dichlorophenyl)-5-(3-hydroxy-2-(hydroxymethyl)propoxy)-2-(methoxymethyl)-1,6-naphthyridin-4(1H)-one], the IC50 was determined as 28 nM.

The compound `COCc1cc(=O)c2c(OCC(O)CO)ncc(Cl)c2n1-c1c(Cl)cccc1Cl` (centres unmarked) [Example 54, 8-chloro-1-(2,6-dichlorophenyl)-5-(2,3-dihydroxypropoxy)-2-(methoxymethyl)-1,6-naphthyridin-4(1H)-one] came in with an IC50 of 29 nM.

As to `N#Cc1cccc(Cl)c1-n1c(C2CC2)cc(=O)c2c(OCC(O)CO)ncc(Cl)c21` (centres unmarked) [Example 55, 3-chloro-2-(8-chloro-2-cyclopropyl-5-(2,3-dihydroxypropoxy)-4-oxo-1,6-naphthyridin-1(4H)-yl)benzonitrile], the IC50 came to 54 nM.

Regarding `Cc1cc(=O)c2c(NCCc3c[nH]cn3)cncc2n1-c1c(Cl)cc(C#N)cc1Cl` [Example 56, 4-(5-((2-(1H-imidazol-4-yl)ethyl)amino)-2-methyl-4-oxo-1,7-naphthyridin-1(4H)-yl)-3,5-dichlorobenzontrile], the IC50 turned out to be 197 nM.

With `CC1(C)OCC(COc2ncc(Cl)c3c2c(=O)cc(CO)n3-c2c(Cl)cccc2Cl)O1` (centres unmarked) [Example 57, 8-chloro-1-(2,6-dichlorophenyl)-5-((2,2-dimethyl-1,3-dioxolan-4-yl)methoxy)-2-(hydroxymethyl)-1,6-naphthyridin-4(1H)-one], inhibition was half-maximal at 32 nM (IC50).

Turning to `O=c1cc(CO)n(-c2c(Cl)cc(F)cc2Cl)c2c(Cl)cnc(OCC(O)CO)c12` (centres unmarked) [Example 60, 8-Chloro-1-(2,6-dichloro-4-fluorophenyl)-5-(2,3-dihydroxypropoxy)-2-(hydroxymethyl)-1,6-naphthyridin-4(1H)-one], it took 261 nM to reach half-maximal inhibition (IC50). This IC50 is about 8.2-fold higher than that of the compound before.

With `O=c1cc(CO)n(-c2c(Cl)cc(F)cc2Cl)c2c(Cl)cnc(OCCO)c12` [Example 61, 8-Chloro-1-(2,6-dichloro-4-fluorophenyl)-5-(2-hydroxyethoxy)-2-(hydroxymethyl)-1,6-naphthyridin-4(1H)-one], the IC50 stood at 68 nM.
